Measured values reported in US20240384268A1, “Oligonucleotides” (Hudson Institute of Medical Research, priority 2021, published 2024).
In the oligonucleotide strings, read from the 5' end, every base follows the letter of its sugar. An asterisk marks phosphorothioate; unmarked linkages are phosphodiester. Other units and linkages are bracketed, terminal groups are in braces. A string of capitals states the bases alone. d = 2'-deoxy (DNA); m = 2'-O-methyl

Target: T1, human TLR9 (Homo sapiens, UniProt Q9NR96)
T1 construct: HA; host or cells: 293XL-hTLR9-HA (HEK293)
T1 sequence (Q9NR96 26-1032): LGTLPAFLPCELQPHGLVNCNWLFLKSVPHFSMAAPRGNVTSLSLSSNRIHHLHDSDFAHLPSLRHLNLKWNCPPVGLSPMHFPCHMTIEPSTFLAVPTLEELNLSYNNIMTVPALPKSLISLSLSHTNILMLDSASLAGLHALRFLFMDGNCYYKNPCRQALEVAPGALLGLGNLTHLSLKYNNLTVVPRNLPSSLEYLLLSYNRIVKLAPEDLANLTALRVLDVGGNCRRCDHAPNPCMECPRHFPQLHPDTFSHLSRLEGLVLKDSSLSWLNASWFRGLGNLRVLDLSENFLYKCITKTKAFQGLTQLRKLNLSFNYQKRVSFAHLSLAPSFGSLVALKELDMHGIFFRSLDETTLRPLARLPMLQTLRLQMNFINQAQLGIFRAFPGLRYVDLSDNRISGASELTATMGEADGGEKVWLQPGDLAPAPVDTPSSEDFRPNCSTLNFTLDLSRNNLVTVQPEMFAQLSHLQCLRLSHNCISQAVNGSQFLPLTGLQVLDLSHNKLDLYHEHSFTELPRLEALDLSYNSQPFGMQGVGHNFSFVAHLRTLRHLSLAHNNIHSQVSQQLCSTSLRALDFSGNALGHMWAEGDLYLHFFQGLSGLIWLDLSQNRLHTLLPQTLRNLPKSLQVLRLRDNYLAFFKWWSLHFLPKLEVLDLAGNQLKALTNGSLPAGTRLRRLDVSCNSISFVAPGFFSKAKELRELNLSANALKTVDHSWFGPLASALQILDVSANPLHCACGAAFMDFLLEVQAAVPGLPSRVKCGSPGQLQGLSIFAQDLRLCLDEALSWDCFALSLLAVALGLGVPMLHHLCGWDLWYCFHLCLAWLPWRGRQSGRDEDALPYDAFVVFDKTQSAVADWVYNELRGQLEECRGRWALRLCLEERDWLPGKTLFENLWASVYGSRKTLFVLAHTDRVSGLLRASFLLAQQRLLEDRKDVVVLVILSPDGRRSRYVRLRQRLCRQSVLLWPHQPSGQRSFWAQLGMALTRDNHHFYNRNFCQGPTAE
Assay: HEK-TLR9 NF-κB-luciferase reporter, ODN2006 stimulation
Type: cell-based
Details: for TLR9 100 nM (averaged NF-κB-Luciferase level relative to ODN2006 condition): ASO 100 nM; for TLR9 100 nM (averaged NF-κB-Luciferase level relative to ODN2006 condition) / TLR9 500 nM (averaged NF-κB-Luciferase level relative to ODN2006 condition): relative to ODN2006 only, given as fraction; for TLR9 500 nM (averaged NF-κB-Luciferase level relative to ODN2006 condition): ASO 500 nM; for TLR9-500 nM: averaged NF-κB-Luciferase relative to ODN2006: HEK-TLR9, 500 nM ASO 45 min, then 200 nM ODN2006 overnight, percentage of ODN2006 only

Row | Substance | TLR9 100 nM (averaged NF-κB-Luciferase level relative to ODN2006 condition) | TLR9 500 nM (averaged NF-κB-Luciferase level relative to ODN2006 condition) | TLR9-500 nM: averaged NF-κB-Luciferase relative to ODN2006 [%]
1 | TCGTGGGGTCCTTTTC (antisense; LNA-modified, pattern not given here) [HPRT LNA-660 V1] | 0.461 | 0.462 | 
2 | AGATTTCAGAGCAGCT (antisense; LNA-modified, pattern not given here) [EGFR-4885 LNA KL] | 0.848 | 0.438 | 
3 | mC*mA*mG*mU*mC*T*C*C*A*T*G*T*C*C*C*mA*mG*mG*mC*mC (mC*mA*mG*mU*mC*dT*dC*dC*dA*dT*dG*dT*dC*dC*dC*mA*mG*mG*mC*mC; antisense) [[CDKN2B-AS1]2233] |  |  | 55.13
4 | mA*mU*mU*mU*mC*C*A*C*A*T*G*C*C*C*A*mG*mU*mG*mU*mU (AUUUCCACATGCCCAGUGUU; antisense; sugars from the 5' end m5 d10 m5, all phosphorothioate, methylation of C not given here) [[CDKN2B-AS1]626] |  |  | 63.65
